Measured values: US20220251095A1, “TRICYCLIC COMPOUND, PREPARATION METHOD THEREFOR AND USE THEREOF” (SHANGHAI JEMINCARE PHARMACEUTICALS CO., LTD., priority 2019, published 2022)

Columns and labels:
[1] = target: T1, coagulation factor XIa protease (FXIa) (Homo sapiens, UniProt P03951); test: Inhibition of coagulation factor XIa (FXIa), chromogenic substrate, absorbance at 405; type: biochemical; settings: FXIa 0.05 μg/mL, substrate 2.5 mM, 37° C. 15 minutes
T1 construct: purchased Abcam ab62411
T1 sequence (P03951 388-625 limits assumed): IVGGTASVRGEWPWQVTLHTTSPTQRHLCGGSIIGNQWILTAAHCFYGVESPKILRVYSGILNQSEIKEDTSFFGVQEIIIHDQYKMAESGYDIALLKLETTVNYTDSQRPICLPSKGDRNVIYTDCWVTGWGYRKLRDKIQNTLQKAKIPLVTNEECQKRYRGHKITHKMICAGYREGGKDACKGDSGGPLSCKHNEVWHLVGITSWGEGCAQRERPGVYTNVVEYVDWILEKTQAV
T1 sequence (P03951 19-387 partner limits assumed): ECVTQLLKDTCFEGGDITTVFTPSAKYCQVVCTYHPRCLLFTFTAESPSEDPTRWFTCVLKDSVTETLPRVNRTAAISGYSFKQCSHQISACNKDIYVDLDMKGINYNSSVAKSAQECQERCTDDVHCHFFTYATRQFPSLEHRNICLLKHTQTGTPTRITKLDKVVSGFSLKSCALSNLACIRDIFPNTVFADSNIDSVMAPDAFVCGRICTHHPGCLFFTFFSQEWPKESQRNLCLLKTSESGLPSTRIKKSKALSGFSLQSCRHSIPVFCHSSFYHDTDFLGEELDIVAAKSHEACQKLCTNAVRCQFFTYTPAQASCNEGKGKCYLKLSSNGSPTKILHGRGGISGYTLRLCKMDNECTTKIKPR
Method: Coagulation factor XIa protease (FXIa) decomposed the specific substrate to produce yellow p-nitroaniline (pNA), pNA had strong absorption at 405 nm. The inhibitory activity of the compounds on coagulation factor XIa was determined by assaying the absorbance of the compounds at […].
The coagulation factor XIa protease used in the experiment was purchased from Abcam Company, Item No. ab62411; the coagulation factor XIa-specific substrate was purchased from HYPHEN BioMed, Item No. Biophen cs-21 (66); tris-HCl was purchased from Invitrogen, Item No. 15567-027; NaCl was purchased from ABCONE, Item No. S39168; Twain 20 was purchased from Amersco, Item No. 0777-1L.
(§1) The compounds were dissolved in 100% DMSO, 20 mM, and stored at room temperature in a nitrogen cabinet.
a. 20 mM of the tested compound was diluted to 2 mM using 100% DMSO, and the reference compound was diluted to 0.4 mM; the compound was continuously diluted with a 3-fold gradient at 10 concentration points using a Bravo liquid workstation.
b. The ECHO liquid workstation was used to transfer 10 nL of compound to the corresponding 384-well experimental plate with double replicate wells; the final concentrations of compound reactions were 1000, 333.3, 111.1, 37.0, 12.3, 4.1, 1.37, 0.46, 0.15, and 0.05 nM. The final concentrations of reference compounds were 200, 66.7, 22.2, 7.4, 2.47, 0.82, 0.27, 0.09, 0.03, 0.01 nM.
c. 10 nL DMSO and 10 nL 0.4 mM reference compounds were transferred to high signal control pores and low signal control pores respectively.
d. 0.1 μg/mL FXIa enzyme solution was prepared with buffer solution, and 10 μL enzyme solution was added to 384-well experimental plate, 5 mM substrate solution was prepared using buffer solution, and […] substrate solution was added to a 384-well experimental plate. The final concentration of FXIa was 0.05 μg/mL and the final concentration of the substrate was 2.5 mM.
e. The 384-hole experimental plate was centrifuged and incubated at 37° C. for 15 minutes.
f. The absorbance was measured at 405 nm using EnVision.

human plasma = test: Anticoagulant effect on human blood in vitro (APTT clotting time, CT2.0); settings: final concentration of compound corresponding to aPTT of the 2-fold blank control
Method: Activated partial thromboplastin time (APTT) measurement reagent was mixed with plasma and the reaction was carried out continuously resulting in a change in optical density up to the clotting point, and the clotting time (CT) was measured by optical turbidimetry using a semi-automatic coagulation analyzer. The in vitro anticoagulant activity of compounds on human blood was determined by detecting the clotting time of plasma treated with different concentrations of compounds, and the corresponding concentration of compounds prolonging clotting time was calculated.
Human plasma used in the experiment was purchased from HD Biosciences (Shanghai) Co., Ltd.; Activated partial thromboplastin time determination kit was purchased from Taizhou Zhongqin Shidi Biotechnology Co., Ltd., Item No. SS00220005.
as §1
a. The NaCl reagent in the kit was incubated half an hour in advance, and the APTT reagent was balanced to room temperature.
b. The compound was continuously diluted at 14 concentration points using a Bravo liquid workstation with a 2-fold gradient.
c. 0.75 μL of the compound was added to the measuring cup, double-replicate wells; 50 μL of plasma was added and 50 μL of APTT reagent was added, the mixture was mixed well and put into coagulation analyzer for incubation at 37° C. for 3 minutes.
d. APTT assay was started, 50 μL of NaCl was added to start the reaction, and the clotting time was counted.
e. Control clotting time was measured using 100% DMSO instead of the compound, and the final concentration of DMSO was 0.5%.
Data were curve-fitted using Graphpad Prism to calculate CT2.0, the final concentration of compound corresponding to aPTT of the 2-fold blank control was calculated.

Row | Compound | IC50 [1] | CT2.0 (human plasma)
1 | O=c1cnc2cc(-c3cnc([C@@H]4[C@H]5C[C@H]5c5cc(-c6cc(Cl)ccc6-n6cnnn6)cc(=O)n54)[nH]3)ccc2[nH]1 [Embodiment 55] | 5.18 nM | 0.67 µM
2 | O=C1CCc2cc(-c3[nH]c([C@@H]4[C@H]5C[C@H]5c5cc(-c6cc(Cl)ccc6-n6cc(Cl)nn6)cc(=O)n54)nc3F)ccc2N1 [Embodiment 31] | 4.63 nM | 2.38 µM
3 | Nc1ccc(-c2[nH]c([C@@H]3[C@H]4C[C@H]4c4nc(-c5cc(Cl)ccc5-n5cnnn5)cc(=O)n43)nc2F)c(F)n1 [Embodiment 14] | 2.84 nM | 0.55 µM
4 | Cn1nc(N)c2ccc(-c3[nH]c([C@@H]4[C@H]5C[C@H]5c5cc(-c6cc(Cl)ccc6-n6cnnn6)cc(=O)n54)nc3F)cc21 [Embodiment 76] | 0.76 nM | 0.43 µM
5 | O=C1Nc2ccc(-c3[nH]c([C@@H]4[C@H]5C[C@H]5c5cc(-c6cc(Cl)ccc6-n6cc(Cl)nn6)cc(=O)n54)nc3F)cc2CO1 [Embodiment 64] | 4.78 nM | 1.11 µM
6 | Nc1noc2cc(-c3[nH]c([C@@H]4[C@H]5C[C@H]5c5cc(-c6cc(Cl)ccc6-n6cnnn6)cc(=O)n54)nc3F)ccc12 [Embodiment 29] | 0.5 nM | 0.37 µM
7 | Nc1n[nH]c2cc(-c3[nH]c([C@@H]4[C@H]5C[C@H]5c5cc(-c6cc(Cl)ccc6-n6cc(C(F)(F)F)nn6)cc(=O)n54)nc3F)ccc12 [Embodiment 78] | 1.41 nM | 0.86 µM
8 | Nc1n[nH]c2cc(-c3[nH]c([C@@H]4[C@H]5C[C@H]5c5cc(-c6cc(Cl)ccc6-n6cc(Cl)nn6)cc(=O)n54)nc3F)ccc12 [Embodiment 33] | 0.85 nM | 0.69 µM
9 | O=c1[nH]c2ccc(-c3[nH]c([C@@H]4[C@H]5C[C@H]5c5cc(-c6cc(Cl)ccc6-n6cnnn6)cc(=O)n54)nc3F)cc2cc1C(F)(F)F [Embodiment 58] | 3.25 nM | 1.21 µM
10 | O=c1cc(-c2cc(Cl)ccc2-n2cnnn2)cc2n1[C@H](c1ncc(-c3ccc4c(c3)CCc3cn[nH]c3-4)[nH]1)[C@H]1C[C@@H]21 [Embodiment 42] | 8.71 nM | 1.08 µM
11 | O=C1CCc2cc(-c3[nH]c([C@@H]4[C@H]5C[C@H]5c5cc(-c6cc(Cl)ccc6-n6cc(Cl)nn6)cc(=O)n54)nc3Cl)ccc2N1 [Embodiment 77] | 3.18 nM | 0.82 µM
12 | O=C1Nc2ccc(-c3cnc([C@@H]4[C@H]5C[C@H]5c5cc(-c6cc(Cl)ccc6-n6cnnn6)cc(=O)n54)[nH]3)cc2CO1 [Embodiment 57] | 8.32 nM | 0.54 µM
13 | Cn1nc(N)c2ccc(-c3[nH]c([C@@H]4[C@H]5C[C@H]5c5cc(-c6cc(Cl)ccc6-n6cc(Cl)nn6)cc(=O)n54)nc3F)cc21 [Embodiment 75] | 5.27 nM | 1.42 µM
14 | O=C1CCc2cc(-c3[nH]c([C@@H]4[C@H]5C[C@H]5c5cc(-c6cc(Cl)ccc6-n6cc(C(F)(F)F)nn6)cc(=O)n54)nc3Cl)ccc2N1 [Embodiment 80] | 6.36 nM | 3.50 µM
15 | Cn1nc(N)c2ccc(-c3cnc([C@@H]4[C@H]5C[C@H]5c5cc(-c6cc(Cl)ccc6-n6cnnn6)cc(=O)n54)[nH]3)cc21 [Embodiment 34] | 11.9 nM | 0.58 µM
16 | Nc1ccc(-c2[nH]c([C@@H]3[C@H]4C[C@H]4c4cc(-c5cc(Cl)ccc5-n5cnnn5)cc(=O)n43)nc2F)c(F)c1F [Embodiment 48] | 3.93 nM | 3.65 µM
17 | CNc1noc2cc(-c3[nH]c([C@@H]4[C@H]5C[C@H]5c5cc(-c6cc(Cl)ccc6-n6cc(Cl)nn6)cc(=O)n54)nc3F)ccc12 [Embodiment 70] | 2.16 nM | 1.32 µM

Row | Compound | IC50 [1] | CT2.0 (human plasma)
18 | Nc1n[nH]c2cc(-c3cnc([C@@H]4[C@H]5C[C@H]5c5cc(-c6cc(Cl)ccc6-n6cc(C(F)F)nn6)cc(=O)n54)[nH]3)ccc12 [Embodiment 82] | 4.84 nM | 1.04 µM
19 | Nc1ccc(-c2cnc([C@@H]3[C@H]4C[C@H]4c4cc(-c5cc(Cl)ccc5-n5cnnn5)cc(=O)n43)[nH]2)c(F)c1F [Embodiment 24] | 8.65 nM | 0.90 µM
20 | O=C1CCc2cc(-c3[nH]c([C@@H]4[C@H]5C[C@H]5c5cc(-c6cc(Cl)ccc6-n6cc(C(F)(F)F)nn6)cc(=O)n54)nc3F)ccc2N1 [Embodiment 81] | 5.37 nM | 2.28 µM
21 | Nc1ccc(-c2[nH]c([C@@H]3[C@H]4C[C@H]4c4cc(-c5cc(Cl)ccc5-n5cnnn5)cc(=O)n43)nc2F)cc1C(F)(F)F [Embodiment 50] | 7.02 nM | 3.16 µM
22 | CC1Cc2cc(-c3[nH]c([C@@H]4[C@H]5C[C@H]5c5cc(-c6cc(Cl)ccc6-n6cnnn6)cc(=O)n54)nc3F)ccc2NC1=O (some centres unmarked) [Embodiment 59] | 1.41 nM | 0.84 µM
23 | Nc1ccc(-c2[nH]c([C@@H]3[C@H]4C[C@H]4c4cc(-c5cc(Cl)ccc5-n5cnnn5)cc(=O)n43)nc2F)cc1OC(F)(F)F [Embodiment 49] | 6.4 nM | 6.86 µM
24 | Nc1noc2cc(-c3cnc([C@@H]4[C@H]5C[C@H]5c5cc(-c6cc(Cl)ccc6-n6cnnn6)cc(=O)n54)[nH]3)ccc12 [Embodiment 28] | 0.82 nM | 0.07 µM
25 | O=C1COc2cc(-c3[nH]c([C@@H]4[C@H]5C[C@H]5c5cc(-c6cc(Cl)ccc6-n6cc(Cl)nn6)cc(=O)n54)nc3F)ccc2N1 [Embodiment 62] | 6.76 nM | 2.32 µM
26 | Nc1n[nH]c2cc(-c3cnc([C@@H]4[C@H]5C[C@H]5c5cc(-c6cc(Cl)ccc6-n6cc(Cl)nn6)cc(=O)n54)[nH]3)ccc12 [Embodiment 32] | 2.72 nM | 0.26 µM
27 | Nc1ccc(-c2[nH]c([C@@H]3[C@H]4C[C@H]4c4cc(-c5cc(Cl)ccc5-n5cnnn5)cc(=O)n43)nc2F)c(F)n1 [Embodiment 2] | 6.7 nM | 0.55 µM
28 | O=C1CCc2c(ccc(-c3cnc([C@@H]4[C@H]5C[C@H]5c5nc(-c6cc(Cl)ccc6-n6cc(Cl)nn6)cc(=O)n54)[nH]3)c2Cl)N1 [Embodiment 91] | 3.93 nM | 2.27 µM
29 | Nc1noc2cc(-c3[nH]c([C@@H]4[C@H]5C[C@H]5c5cc(-c6cc(Cl)ccc6-n6cc(C(F)(F)F)nn6)cc(=O)n54)nc3F)ccc12 [Embodiment 79] | 1.02 nM | 0.72 µM
30 | O=C1CCc2cc(-c3[nH]c([C@@H]4[C@H]5C[C@H]5c5nc(-c6cc(Cl)ccc6-n6cc(Cl)nn6)cc(=O)n54)nc3F)ccc2N1 [Embodiment 92] | 4.24 nM | 0.83 µM
31 | Nc1n[nH]c2cc(-c3cnc([C@@H]4[C@H]5C[C@H]5c5cc(-c6cc(Cl)ccc6-n6cnnn6)cc(=O)n54)[nH]3)ccc12 [Embodiment 15] | 0.82 nM | 0.47 µM
32 | O=C1COc2cc(-c3cnc([C@@H]4[C@H]5C[C@H]5c5cc(-c6cc(Cl)ccc6-n6cnnn6)cc(=O)n54)[nH]3)ccc2N1 [Embodiment 20] | 6.3 nM | 0.88 µM
33 | Nc1noc2c(F)c(-c3cnc([C@@H]4[C@H]5C[C@H]5c5cc(-c6cc(Cl)ccc6-n6cc(Cl)nn6)cc(=O)n54)[nH]3)ccc12 [Embodiment 68] | 3.54 nM | 0.65 µM
34 | O=C1CCc2cc(-c3cnc([C@@H]4[C@H]5C[C@H]5c5nc(-c6cc(Cl)ccc6-n6cc(Cl)nn6)cc(=O)n54)[nH]3)ccc2N1 [Embodiment 89] | 12.5 nM | 1.29 µM
